Measurements published in article PMC11091702, “CD38 restrains the activity of extracellular cGAMP in a model of multiple myeloma” (iScience, 2024).
Like-named read-outs stand apart in the source and are kept apart here. Values belong to the compound of their own block, whether it stands above or below them.

Experiments:
CD38 (rhCD38) = target: T1, CD38 (rhCD38) (Homo sapiens, UniProt P28907); assay: tryptophan fluorescence quenching titration; format: binding
T1 construct: ectodomain of recombinant human CD38 (His-tagged)

[1] = system: T2, NC(=O)c1ccc[n+]([C@@H]2O[C@H](COP(=O)([O-])OP(=O)(O)OC[C@H]3O[C@@H](n4cnc5c4ncn4ccnc54)[C@H](O)[C@@H]3O)[C@@H](O)[C@H]2O)c1; assay: fluorescence hydrolase assay, Km determination; format: biochemical, Homo sapiens
T2 construct: recombinant human His-tagged CD38 protein

T1 sequence (P28907 45-300): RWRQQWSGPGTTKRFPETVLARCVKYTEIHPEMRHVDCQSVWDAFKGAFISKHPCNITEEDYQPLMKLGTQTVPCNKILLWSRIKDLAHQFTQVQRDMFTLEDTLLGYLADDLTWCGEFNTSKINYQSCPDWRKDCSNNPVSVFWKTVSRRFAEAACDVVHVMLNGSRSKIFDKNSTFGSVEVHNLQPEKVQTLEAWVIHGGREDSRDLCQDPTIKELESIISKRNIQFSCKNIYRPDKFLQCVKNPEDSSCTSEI

Compound: NC(=O)c1ccc[n+]([C@@H]2O[C@H](COP(=O)([O-])OP(=O)(O)OC[C@H]3O[C@@H](n4cnc5c(N)ncnc54)[C@H](O)[C@@H]3O)[C@@H](O)[C@H]2O)c1 [β-NAD]
Kd (CD38 (rhCD38)): 28 ± 9.4 µM

Kd (CD38 (rhCD38); read-out: Kd): 46.3 ± 9.8 µM
Compound: Nc1nc2c(ncn2[C@@H]2O[C@@H]3COP(=O)(S)O[C@H]4[C@@H](O)[C@H](n5cnc6c(N)ncnc65)O[C@@H]4COP(=O)(S)O[C@@H]2[C@@H]3O)c(=O)[nH]1 (stereo partly drawn) [2′3′-cG^sA^sMP]

Compound: CD38 (rhCD38) (Homo sapiens)
Km [1]: 56.2 ± 8.9 x 10^−6 M
